Test results as given in PMC9516332 (Frontiers in Oncology, 2022).
Read-outs that look alike come from different tables or passages of the source.

Columns and labels:
AP-1060 (ETV6-NTRK3) = test: Cell viability assay; conditions: read-out: IC50 in cell proliferation assay
[1] = biological target: panel of 255 wild-type kinases (Homo sapiens, UniProt Q9Y463); test: Kinase panel profiling at 1 µmol/L (MSA or IMAP), percentage inhibition; format: biochemical; conditions: kinase DYRK1B; 1 µmol/L single concentration; read-out: %-inhibition at 1 µmol/L, DYRK1B
[2] = biological target: T1, panel of 255 wild-type kinases (Homo sapiens, UniProt Q96PF2); test: as above; format: biochemical; conditions: kinase TSSK2; 1 µmol/L single concentration; read-out: %-inhibition at 1 µmol/L, TSSK2
T1 sequence (Q96PF2 1-358): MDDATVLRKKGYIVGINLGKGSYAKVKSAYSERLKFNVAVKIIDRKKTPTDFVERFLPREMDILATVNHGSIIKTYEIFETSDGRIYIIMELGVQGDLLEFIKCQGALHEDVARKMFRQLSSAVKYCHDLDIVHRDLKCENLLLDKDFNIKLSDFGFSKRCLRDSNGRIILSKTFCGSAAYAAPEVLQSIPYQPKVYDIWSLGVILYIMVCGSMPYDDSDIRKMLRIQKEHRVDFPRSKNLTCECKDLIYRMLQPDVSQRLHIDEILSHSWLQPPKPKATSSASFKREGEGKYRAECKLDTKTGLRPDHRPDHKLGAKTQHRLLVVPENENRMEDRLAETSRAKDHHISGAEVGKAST

[3] = biological target: panel of 255 wild-type kinases (Homo sapiens, UniProt P08581); test: as above; format: biochemical; conditions: MET; 1 µmol/L single concentration
[4] = biological target: panel of 255 wild-type kinases (Homo sapiens, UniProt P31749); test: as above; format: biochemical; conditions: AKT1 kinase assay; 1 µmol/L single concentration; read-out: %-inhibition AKT1
134 cancer cell lines = test: Cell viability assay (ATPlite, 72 hours), IC50 on cancer cell line panel

For `CCN1C(=O)N(c2c(F)c(OC)cc(OC)c2F)Cc2cnc3[nH]c(CN4CCOCC4)cc3c21` [pemigatinib], the IC50 (AP-1060 (ETV6-NTRK3)) was 3.42 µM, the inhibition at 1 µM [1] was 6% and the inhibition at 1 µM [2] was -3.21%. For the same compound, the inhibition at 1 µM [3] was -2.49%, the inhibition at 1 µM [4] was -12% and the IC50 (134 cancer cell lines; HEC-6, read-out: IC50 in cell proliferation assay) was 2.49 µM. For the same compound, the IC50 (134 cancer cell lines; Homo sapiens, 769-P, read-out: IC50 in cell proliferation assay) was 2.53 µM, the IC50 (134 cancer cell lines; Homo sapiens, 786-0, read-out: IC50 in cell proliferation assay) was 2.71 µM and the IC50 (134 cancer cell lines; Homo sapiens, A 172, read-out: IC50 in cell proliferation assay) was 0.029 µM. It also gave an IC50 (134 cancer cell lines; Homo sapiens, A204, read-out: IC50 in cell proliferation assay) of 0.029 µM, an IC50 (134 cancer cell lines; Homo sapiens, A498, read-out: IC50 in cell proliferation assay) of 1.13 µM and an IC50 (134 cancer cell lines; Homo sapiens, A549, read-out: IC50 in cell proliferation assay) of 4.02 µM. The IC50 (134 cancer cell lines; Homo sapiens, A704, read-out: IC50 in cell proliferation assay) was 1.28 µM, the IC50 (134 cancer cell lines; Homo sapiens, A-375, read-out: IC50 in cell proliferation assay) was 3.03 µM and the IC50 (134 cancer cell lines; Homo sapiens, A-427, read-out: IC50 in cell proliferation assay) was 0.00143 µM. For the same compound, the IC50 (134 cancer cell lines; Homo sapiens, ACHN, read-out: IC50 in cell proliferation assay) was 0.989 µM, the IC50 (134 cancer cell lines; Homo sapiens, AN3-CA, read-out: IC50 in cell proliferation assay) was 0.022 µM and the IC50 (134 cancer cell lines; Homo sapiens, ASPC1, read-out: IC50 in cell proliferation assay) was 3.17 µM. The IC50 (134 cancer cell lines; Homo sapiens, AU565, read-out: IC50 in cell proliferation assay) was 3.26 µM, the IC50 (134 cancer cell lines; Homo sapiens, BT-20, read-out: IC50 in cell proliferation assay) was 2.84 µM and the IC50 (134 cancer cell lines; Homo sapiens, BT-474, read-out: IC50 in cell proliferation assay) was > 31.6 µM. For the same compound, the IC50 (134 cancer cell lines; Homo sapiens, BT-549, read-out: IC50 in cell proliferation assay) was 0.017 µM, the IC50 (134 cancer cell lines; Homo sapiens, BXPC-3, read-out: IC50 in cell proliferation assay) was 1.2 µM and the IC50 (134 cancer cell lines; Homo sapiens, C-33-A, read-out: IC50 in cell proliferation assay) was 2.71 µM. The IC50 (134 cancer cell lines; Homo sapiens, CAL-27, read-out: IC50 in cell proliferation assay) was 2.65 µM, the IC50 (134 cancer cell lines; Homo sapiens, CCF-STTG1, read-out: IC50 in cell proliferation assay) was > 31.6 µM and the IC50 (134 cancer cell lines; Homo sapiens, CCRF-CEM, read-out: IC50 in cell proliferation assay) was 3.6 µM. For the same compound, the IC50 (134 cancer cell lines; Homo sapiens, COLO 205, read-out: IC50 in cell proliferation assay) was 2.98 µM, the IC50 (134 cancer cell lines; Homo sapiens, COLO-829, read-out: IC50 in cell proliferation assay) was 3.23 µM and the IC50 (134 cancer cell lines; Homo sapiens, DLD-1, read-out: IC50 in cell proliferation assay) was 2.27 µM. The IC50 (134 cancer cell lines; Homo sapiens, DU-145, read-out: IC50 in cell proliferation assay) was 1.6 µM, the IC50 (134 cancer cell lines; Homo sapiens, DU-4475, read-out: IC50 in cell proliferation assay) was 5.83 µM and the IC50 (134 cancer cell lines; Homo sapiens, Daoy, read-out: IC50 in cell proliferation assay) was 1.41 µM. For the same compound, the IC50 (134 cancer cell lines; Homo sapiens, DoTc2-4510, read-out: IC50 in cell proliferation assay) was 3.19 µM, the IC50 (134 cancer cell lines; Homo sapiens, EOL1, read-out: IC50 in cell proliferation assay) was 1.11 µM and the IC50 (134 cancer cell lines; Homo sapiens, FaDu, read-out: IC50 in cell proliferation assay) was 2.6 µM. The IC50 (134 cancer cell lines; Homo sapiens, G-361, read-out: IC50 in cell proliferation assay) was 2.57 µM, the IC50 (134 cancer cell lines; Homo sapiens, HCC827, read-out: IC50 in cell proliferation assay) was 3.2 µM and the IC50 (134 cancer cell lines; Homo sapiens, HCC4006, read-out: IC50 in cell proliferation assay) was 2.62 µM. The IC50 (134 cancer cell lines; Homo sapiens, HCT-15, read-out: IC50 in cell proliferation assay) was 2.82 µM, the IC50 (134 cancer cell lines; Homo sapiens, HCT-116, read-out: IC50 in cell proliferation assay) was 2.4 µM and the IC50 (134 cancer cell lines; Homo sapiens, HEC-1, read-out: IC50 in cell proliferation assay) was 2.37 µM. The IC50 (134 cancer cell lines; Homo sapiens, HEC-1B, read-out: IC50 in cell proliferation assay) was 2.74 µM, the IC50 (134 cancer cell lines; Homo sapiens, HL-60, read-out: IC50 in cell proliferation assay) was 2.45 µM and the IC50 (134 cancer cell lines; Homo sapiens, HT, read-out: IC50 in cell proliferation assay) was > 31.6 µM. The IC50 (134 cancer cell lines; Homo sapiens, HT-1080, read-out: IC50 in cell proliferation assay) was 1.06 µM, the IC50 (134 cancer cell lines; Homo sapiens, Hs746T, read-out: IC50 in cell proliferation assay) was 1.84 µM and the IC50 (134 cancer cell lines; Homo sapiens, Hs-578T, read-out: IC50 in cell proliferation assay) was 3.78 µM. For the same compound, the IC50 (134 cancer cell lines; Homo sapiens, HuTu80, read-out: IC50 in cell proliferation assay) was 0.00358 µM, the IC50 (134 cancer cell lines; Homo sapiens, J82, read-out: IC50 in cell proliferation assay) was 1.13 µM and the IC50 (134 cancer cell lines; Homo sapiens, Jurkat E6.1, read-out: IC50 in cell proliferation assay) was 2.89 µM. It also gave an IC50 (134 cancer cell lines; Homo sapiens, K562, read-out: IC50 in cell proliferation assay) of 3.77 µM, an IC50 (134 cancer cell lines; Homo sapiens, KATO III, read-out: IC50 in cell proliferation assay) of 0.00177 µM and an IC50 (134 cancer cell lines; Homo sapiens, KG-1, read-out: IC50 in cell proliferation assay) of 0.00108 µM. The IC50 (134 cancer cell lines; Homo sapiens, KLE, read-out: IC50 in cell proliferation assay) was 1.82 µM, the IC50 (134 cancer cell lines; Homo sapiens, KMS-11, read-out: IC50 in cell proliferation assay) was 0.016 µM and the IC50 (134 cancer cell lines; Homo sapiens, KU812, read-out: IC50 in cell proliferation assay) was 4.66 µM. For the same compound, the IC50 (134 cancer cell lines; Homo sapiens, Kasumi 1, read-out: IC50 in cell proliferation assay) was 1.29 µM, the IC50 (134 cancer cell lines; Homo sapiens, LC-2-ad, read-out: IC50 in cell proliferation assay) was 3.28 µM and the IC50 (134 cancer cell lines; Homo sapiens, LNCaP-Clone-FGC, read-out: IC50 in cell proliferation assay) was 3.09 µM.
